In patent publication US20210196702A1, “TREATMENT OF HYPERKINETIC MOVEMENT DISORDERS” (Neurocrine Biosciences, Inc., priority 2014, published 2021):
Like-named read-outs stand apart in the source and are kept apart here. Blank lines part the entries; values can stand above or below the molecule they belong to.

Legend:
[1] = Phase 2 clinical study: week 6 plasma concentration (Cmax ss) of [+]α-HTBZ; assay type: in vivo; conditions: human, NBI-98854 25, 50 or 75 mg, TD patients
Description: (§1) Plasma concentrations of (+)α-HTBZ, (+)β-HTBZ, and compounds as disclosed herein may be measured by methods as described in Derangula et al, Biomedical Chromatography 2013 27(6): 792-801, Mehvar et al, […] 1987 15(2): 250-55 and generally by tandem mass spectroscopy.
(§2) Observed exposure and Abnormal Involuntary Movement Scale (AIMS) derived from video ratings from a Phase 2 clinical study of (S)-2-amino-3-methyl-butyric acid (2R,3R,11bR)-3-isobutyl-9,10-dimethoxy-1,3,4,6,7,11b-hexahydro-2H-pyrido[2,1-a]isoquinolin-2-yl ester were employed for development of the exposure-response relationship. A total of […] were randomized to placebo (N=41) and (S)-2-amino-3-methyl-butyric acid (2R,3R,11bR)-3-isobutyl-9,10-dimethoxy-1,3,4,6,7,11b-hexahydro-2H-pyrido[2,1-a]isoquinolin-2-yl ester (either 25 mg, 50 mg or 75 mg, N=45). Thirty-eight patients receiving (S)-2-amino-3-methyl-butyric acid (2R,3R,11bR)-3-isobutyl-9,10-dimethoxy-1,3,4,6,7,11b-hexahydro-2H-pyrido[2,1-a]isoquinolin-2-yl ester had PK data available for the metabolite [+]α-dihydrotetrabenazine. […] AIMS derived from video rating was available at baseline and week 6 in each patient. Percent change from baseline at week 6 served as the response metric. [+]α-Dihydrotetrabenazine concentration at week 6 sampled at about the Tmax was available in each patient and this Cmax steady state (ss) was used as the exposure measure.
(§3) The patients who had quantifiable concentrations of [+]α-dihydrotetrabenazine were divided into quartiles based upon the week 6 Cmax ss. The mean Cmax ss and mean AIMS reduction from baseline were calculated for each quartile.

TD subjects [2] = assay: Phase 2 clinical study of NBI-98854: exposure-AIMS (video-rated) analysis; assay type: in vivo, human; conditions: for Mean AIMS reduction - % (week 6 vs baseline): regardless of NBI-98854 dose
Description: Methods for determining the effectiveness of a therapeutic for treating a hyperkinetic disorder are routinely practiced in the art by a person skilled in the medical and clinical arts. By way of example, a subject with a hyperkinetic disorder may be diagnosed, monitored, and evaluated by the Abnormal Involuntary Movement Scale (AIMS). The AIMS is a structured neurological examination that was developed in 1976 and has been used extensively in movement disorder assessments. It consists of seven distinct ratings of regional involuntary body movements that are scored on a zero to four scale with zero being rated as none and four being rated as severe.
as §2, §3

[3] = NBI-98854 multiple-dose cohort: plasma (+)α-HTBZ on day 8; assay type: in vivo, human; conditions: for half-life: read-out: apparent ti (half-life) of plasma concentration decline (converted)
Method: as §1
NBI-98854 was administered orally once daily at a dose of 50 mg or 100 mg for 8 days to patients in a multiple-dose cohort (n=13 for 50 mg dosage group; n=4 for 100 mg dosage group). Individual subject plasma concentration data for (+)α-HTBZ was collected at scheduled times post-dose (0 hr, 2 hr, 4 hr, 6 hr, 8 hr, 12 hr, 16 hr, 24 hr, 48 hr, 96 hr, and 120 hr) on day 8 and presented as mean plasma concentration data (linear scale) (see, FIG. 1). On Day 8, median time to Tmax for (+)α-HTBZ was approximately 4.0 hours for both doses.

[4] = cited from earlier work
TD subjects [5] = assay: Tolerability of repeated doses in TD subjects; assay type: in vivo, human; conditions: repeated doses from 12.5 mg to 100 mg per day
Method: Efficacy is related to the concentrations of the active metabolite [+]α-dihydrotetrabenazine. […] Exposures above 60 ng/mL in plasma afford little incremental benefit but increase the risk of adverse events reflecting extension of VMAT2 pharmacology. Exposures below 15 ng/mL are suboptimal across the general TD population.

patients exposed to drug = conditions: patients exposed to metoclopramide (Rao et al 2010); cited from earlier work
[6] = active metabolite after NBI-98854, TD population

Cmax ([1]; 1st quartile by week 6 Cmax ss): ~15 ng/mL
Cmax ([1]; 2nd quartile by week 6 Cmax ss): ~29 ng/mL
Cmax ([1]; 3rd quartile by week 6 Cmax ss): 42 ng/mL
Cmax ([1]; 4th quartile by week 6 Cmax ss): 93 ng/mL
Plasma concentration maintained above threshold ([3]; NBI-98854 50 mg once daily, over a period of about 8 to about 24 hours): > 15 ng/mL
half-life ([3]; human, plasma, po, NBI-98854 50 mg orally once daily): ~21 h
half-life ([3]; human, plasma, po, NBI-98854 100 mg orally once daily): ~19 h
Tmax ([3]; human, plasma, po, NBI-98854 orally once daily, both doses (50 mg and 100 mg), read-out: median time to Tmax): ~4 h
Compound: COc1cc2c(cc1OC)[C@H]1C[C@@H](O)[C@H](CC(C)C)CN1CC2 [(+)α-HTBZ, (2R, 3R, 11bR)-3-isobutyl-9,10-dimethoxy-1,3,4,6,7,11b-hexahydro-2H-pyrido[2,1-a]isoquinolin-2-ol]
Appropriate target concentration in plasma (exposure-response analysis) (TD subjects [2]; [6]): 30 ng/mL
Plasma exposures affording little incremental benefit but increased risk of adverse events (TD subjects [2]; [6]): above 60 ng/mL
Plasma exposures that are suboptimal across the general TD population (TD subjects [2]; [6]): below 15 ng/mL

Compound: COc1cc2c(cc1OC)C1CC(O)C(CC(C)C)CN1CC2 (centres unmarked) [HTBZ, 3-isobutyl-9,10-dimethoxy-1,3,4,6,7,11b-hexahydro-2H-pyrido[2,1-a]isoquinolin-2-ol]
half-life ([4]; HTBZ formed from tetrabenazine in humans): short

Compound: COc1cc2c(cc1OC)[C@H]1C[C@@H](OC(=O)[C@@H](N)C(C)C)[C@H](CC(C)C)CN1CC2 [NBI-98854, (S)-2-amino-3-methyl-butyric acid (2R,3R,11bR)-3-isobutyl-9,10-dimethoxy-1,3,4,6,7,11b-hexahydro-2H-pyrido[2,1-a]isoquinolin-2-yl ester]
Mean AIMS reduction - % (week 6 vs baseline) (TD subjects [2]; 3rd quartile of [+]α-HTBZ Cmax ss): 65%
Mean AIMS reduction - % (week 6 vs baseline) (TD subjects [2]; 4th quartile of [+]α-HTBZ Cmax ss): 52%
Tolerability (TD subjects [5]): generally well tolerated

Compound: CCN(CC)CCNC(=O)c1cc(Cl)c(N)cc1OC [metoclopramide]
Occurrence of drug-induced TD in patients exposed to drug (patients exposed to drug): < 1%

Compound: COc1cc2c(cc1OC)C1CC(=O)C(CC(C)C)CN1CC2 (centres unmarked) [tetrabenazine, 3-isobutyl-9,10-dimethoxy-1,3,4,6,7,11b-hexahydro-2H-pyrido[2,1-a]isoquinolin-2-one]
Systemic exposure to parent drug ([4]; in humans, rapidly metabolized to HTBZ): virtually negligible
